Key:
[1] = test system: painful neuropathy; experiment: Case report: type 1 diabetes patient with painful neuropathy treated with sildenafil; format: in vivo, human; details: 50 mg/week single administration
Protocol: A patient had been suffering from diabetes mellitus, type 1, for about 35 years. Complications included a retinopathy and a painful neuropathy. Under intensified insulin therapy, blood glucose metabolism data were in a sub-optimum range (HbA1c around 8%). Thus, the patient suffered from a painful neuropathy and was treated unsuccessfully with various conventional medicaments.
Objectifiable diagnostic data were improved as well.

[2] = test system: diabetic polyneuropathy; experiment: Case report: type 2 diabetes patient with diabetic polyneuropathy treated with sildenafil; format: in vivo, human; details: twelve months after start of therapy
Protocol: A patient had been suffering from diabetes mellitus, type 2, for 9 years. While blood glucose values (HbA1c between 6 and 7%) were good, symptoms of a diabetic polyneuropathy appeared, namely vibration sensing of 2/8, no filament sensing, and a reduced hot/cold differentiation. Because of a simultaneous erectile dysfunction they were treated with sildenafil in its commercially available preparation (tablets) at 50 mg/week in a single administration.
Subjectively, the patient noted disappearance of sensory misperceptions of temperature.

## CCCc1nn(C)c2c(=O)[nH]c(-c3cc(S(=O)(=O)N4CCN(C)CC4)ccc3OCC)nc12 [sildenafil]
[1]; in the course of the following three months
  symptomatic pain: lasting improvement
[1]; three months
  objectifiable diagnostic data: improved
[2]; 50 mg/week single administration (tablets)
  neurologic situation: largely normal
[2]; 50 mg/week
  sensory misperceptions of temperature (subjective): disappearance
[2]; 50 mg/week, 2/8 before therapy
  vibration sensing: 5/8
[2]; 50 mg/week, no filament sensing before therapy
  filament sensing: intact
[2]; 50 mg/week, reduced before therapy
  hot/cold differentiation: intact

Reference: patent publication US7338955B1, “Medicament for treatment of neuropathies” (Lilly ICOS LLC, priority 1999, dated 2008)
